Reference: PubChem BioAssay AID248 (DTP/NCI, 2004)
Values joined by “and” are separate entries in the source; they are usually repeats but may differ in a detail not shown here. Equal entries are not always repeated. Inconclusive results and toxic doses are left out.

Test system: L1210 leukemia ip in BDF1 mice, survival T/C
Test: NCI In Vivo Anticancer Drug Screen. Data for tumor model L1210 Leukemia (intraperitoneal) in B6D2F1 (BDF1) mice
Details: endpoint: mean survival time, higher = longer survival
Method in brief: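 Tumor cells were implanted, animals were treated, and survival was followed. The result divides the treated measurement by the vehicle-control measurement.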

[1] = dose: 100.0 mg/kg/injection, schedule: Q01DX001 (ip), vehicle: carboxymethylcellulose (CMC)
[2] = dose: 200.0 mg/kg/injection, schedule: Q01DX001 (ip), vehicle: carboxymethylcellulose (CMC)
[3] = dose: 400.0 mg/kg/injection, schedule: Q01DX001 (ip), vehicle: carboxymethylcellulose (CMC)
[4] = dose: 100.0 mg/kg/injection, schedule: Q01DX009 (ip), vehicle: Klucel (hydroxypropylcellulose) (HPC)
[5] = dose: 100.0 mg/kg/injection, schedule: Q04DX003 (ip), vehicle: Klucel (hydroxypropylcellulose) (HPC)
[6] = dose: 200.0 mg/kg/injection, schedule: Q01DX009 (ip), vehicle: Klucel (hydroxypropylcellulose) (HPC)
[7] = dose: 200.0 mg/kg/injection, schedule: Q04DX003 (ip), vehicle: Klucel (hydroxypropylcellulose) (HPC)
[8] = dose: 400.0 mg/kg/injection, schedule: Q01DX009 (ip), vehicle: Klucel (hydroxypropylcellulose) (HPC)
[9] = dose: 400.0 mg/kg/injection, schedule: Q04DX003 (ip), vehicle: Klucel (hydroxypropylcellulose) (HPC)
[10] = dose: 100.0 mg/kg/injection, schedule: Q01DX001 (ip), vehicle: saline
[11] = dose: 100.0 mg/kg/injection, schedule: Q04DX002 (ip), vehicle: saline with Tween-80
[12] = dose: 200.0 mg/kg/injection, schedule: Q04DX002 (ip), vehicle: saline with Tween-80
[13] = dose: 400.0 mg/kg/injection, schedule: Q04DX002 (ip), vehicle: saline with Tween-80
[14] = dose: 100.0 mg/kg/injection, schedule: Q04DX003 (ip), vehicle: saline with Tween-80
[15] = dose: 200.0 mg/kg/injection, schedule: Q04DX003 (ip), vehicle: saline with Tween-80
[16] = dose: 400.0 mg/kg/injection, schedule: Q04DX003 (ip), vehicle: saline with Tween-80
[17] = dose: 100.0 mg/kg/injection, schedule: Q01DX001 (ip), vehicle: Klucel (hydroxypropylcellulose) (HPC)
[18] = dose: 200.0 mg/kg/injection, schedule: Q01DX001 (ip), vehicle: Klucel (hydroxypropylcellulose) (HPC)
[19] = dose: 400.0 mg/kg/injection, schedule: Q01DX001 (ip), vehicle: Klucel (hydroxypropylcellulose) (HPC)

Structure (SMILES): ClCCN(CCCl)c1ccc(C=Nc2ccc(-n3ccnc3)cc2)c(Cl)c1
- T/C (dose: 80.0 mg/kg/injection, schedule: Q04DX002 (ip), vehicle: Klucel (hydroxypropylcellulose) (HPC)): 95 % of control
- T/C (dose: 160.0 mg/kg/injection, schedule: Q04DX002 (ip), vehicle: Klucel (hydroxypropylcellulose) (HPC)): 102 % of control
- T/C (dose: 320.0 mg/kg/injection, schedule: Q04DX002 (ip), vehicle: Klucel (hydroxypropylcellulose) (HPC)): 98 % of control

Structure (SMILES): Cn1c(=O)c2c(nc(CCC3CCCC3)n2C)n(C)c1=O
- T/C (dose: 50.0 mg/kg/injection, schedule: Q01DX001 (ip), vehicle: carboxymethylcellulose (CMC)): 92 % of control
- T/C [1]: 97 % of control
- T/C [2]: 90 % of control
- T/C [3]: 97 % of control

Structure (SMILES): CC(C1CCC2CCC3CCCC1C32)C1CCC2CCC3CCCC1C32 (stereo not drawn)
- T/C (dose: 100.0 mg/kg/injection, schedule: Q01DX001 (ip), vehicle: other): 99 % of control
- T/C (dose: 200.0 mg/kg/injection, schedule: Q01DX001 (ip), vehicle: other): 103 % of control
- T/C (dose: 400.0 mg/kg/injection, schedule: Q01DX001 (ip), vehicle: other): 101 % of control

Structure (SMILES): O=C(O)C1=CC(O)C(O)C(O)C1 (stereo not drawn)
- T/C (dose: 100.0 mg/kg/injection, schedule: Q01DX009 (ip), vehicle: saline sonified): 103 % of control
- T/C (dose: 100.0 mg/kg/injection, schedule: Q01DX009 (ip), vehicle: saline): 104 % of control
- T/C (dose: 100.0 mg/kg/injection, schedule: Q04DX003 (ip), vehicle: saline): 92 % of control
- T/C (dose: 200.0 mg/kg/injection, schedule: Q01DX009 (ip), vehicle: saline sonified): 86 % of control
- T/C (dose: 200.0 mg/kg/injection, schedule: Q01DX009 (ip), vehicle: saline): 107 % of control
- T/C (dose: 200.0 mg/kg/injection, schedule: Q04DX003 (ip), vehicle: saline): 100 % of control
- T/C (dose: 400.0 mg/kg/injection, schedule: Q01DX009 (ip), vehicle: saline): 106 % of control
- T/C (dose: 400.0 mg/kg/injection, schedule: Q04DX003 (ip), vehicle: saline): 97 % of control

Structure (SMILES): CN(C)N=Nc1ccc(C(=N)N)cc1
- T/C (dose: 100.0 mg/kg/injection, schedule: Q01DX001 (ip), vehicle: acid diluted with saline): 105 % of control

Structure (SMILES): COC(C)C/C=N/Nc1nnc(N/N=C/CC(C)OC)c2ccccc12 (stereo not drawn)
- T/C (dose: 5.0 mg/kg/injection, schedule: Q01DX001 (ip), vehicle: carboxymethylcellulose (CMC)): 96 % of control
- T/C (dose: 10.0 mg/kg/injection, schedule: Q01DX001 (ip), vehicle: carboxymethylcellulose (CMC)): 93 % of control

Structure (SMILES): O=[N+]([O-])c1cc(Cl)c(Cl)cc1[N+](=O)[O-]
- T/C (dose: 50.0 mg/kg/injection, schedule: Q04DX002 (ip), vehicle: Klucel (hydroxypropylcellulose) (HPC)): 106 % of control
- T/C (dose: 75.0 mg/kg/injection, schedule: Q04DX002 (ip), vehicle: Klucel (hydroxypropylcellulose) (HPC)): 103 % of control
- T/C (dose: 150.0 mg/kg/injection, schedule: Q04DX002 (ip), vehicle: Klucel (hydroxypropylcellulose) (HPC)): 101 % of control and 110 % of control

Structure (SMILES): Cc1ccc(Cl)cc1NC(=O)c1ccccc1
- T/C [4]: 89 % of control
- T/C [5]: 95 % of control
- T/C [6]: 100 % of control
- T/C [7]: 106 % of control
- T/C [8]: 94 % of control
- T/C [9]: 95 % of control

Structure (SMILES): CCOC(=O)NNc1ccccc1
- T/C [10]: 102 % of control
- T/C (dose: 200.0 mg/kg/injection, schedule: Q01DX001 (ip), vehicle: saline): 97 % of control

Structure (SMILES): COc1cc(C)c(/C=N/NC(=O)c2ccncc2)cc1C
- T/C (dose: 100.0 mg/kg/injection, schedule: Q04DX002 (ip), vehicle: carboxymethylcellulose (CMC)): 103 % of control
- T/C (dose: 200.0 mg/kg/injection, schedule: Q04DX002 (ip), vehicle: carboxymethylcellulose (CMC)): 96 % of control
- T/C (dose: 400.0 mg/kg/injection, schedule: Q04DX002 (ip), vehicle: carboxymethylcellulose (CMC)): 92 % of control

Structure (SMILES): COc1cc2oc3cc(C)oc(=O)c3c2cc1OC
- T/C [11]: 106 % of control
- T/C [12]: 95 % of control
- T/C [13]: 103 % of control

Structure (SMILES): COc1ccc(Oc2cccc3cnccc23)cc1
- T/C (dose: 100.0 mg/kg/injection, schedule: Q04DX002 (ip), vehicle: Klucel (hydroxypropylcellulose) (HPC)): 102 % of control
- T/C (dose: 200.0 mg/kg/injection, schedule: Q04DX002 (ip), vehicle: Klucel (hydroxypropylcellulose) (HPC)): 91 % of control
- T/C (dose: 400.0 mg/kg/injection, schedule: Q04DX002 (ip), vehicle: Klucel (hydroxypropylcellulose) (HPC)): 94 % of control

Structure (SMILES): COC(=O)[C@]1(C)CCC[C@]2(C)c3cc(C(C)=O)c(C(C)C)cc3CC[C@@H]12
- T/C [14]: 102 % of control
- T/C [15]: 105 % of control
- T/C [16]: 98 % of control

Structure (SMILES): c1ccc(-c2nc3ccccc3nc2-c2ccccc2)cc1
- T/C [5]: 96 % of control
- T/C [14]: 100 % of control
- T/C [7]: 86 % of control
- T/C [15]: 100 % of control
- T/C [9]: 90 % of control
- T/C [16]: 100 % of control

Structure (SMILES): CC(C)(C)N(O)C(=O)NC1CCCCC1
- T/C [17]: 92 % of control
- T/C [18]: 91 % of control
- T/C [19]: 103 % of control

Structure (SMILES): COC(=O)c1cccc(Nc2ccccc2C(=O)O)c1
- T/C [17]: 102 % of control
- T/C [18]: 96 % of control
- T/C [19]: 93 % of control

Structure (SMILES): CCC(=O)C(CC)c1ccc(OC)cc1OC (stereo not drawn)
- T/C [4]: 93 % of control
- T/C [5]: 103 % of control
- T/C [6]: 95 % of control
- T/C [7]: 101 % of control
- T/C [8]: 98 % of control
- T/C [9]: 103 % of control

Structure (SMILES): CN1CCCN(C(c2ccccc2)c2ccc(Cl)cc2)CC1 (stereo not drawn)
- T/C (dose: 7.81 mg/kg/injection, schedule: Q01DX009 (ip), vehicle: saline): 96 % of control
- T/C (dose: 15.62 mg/kg/injection, schedule: Q01DX009 (ip), vehicle: saline): 105 % of control
- T/C (dose: 31.25 mg/kg/injection, schedule: Q01DX009 (ip), vehicle: saline): 96 % of control

Structure (SMILES): CC(=O)OC1CCC(NC(=O)N(CCF)N=O)CC1 (stereo not drawn)
- T/C (dose: 20.0 mg/kg/injection, schedule: Q01DX001 (ip), vehicle: other): 298 % of control
- T/C (dose: 40.0 mg/kg/injection, schedule: Q01DX001 (ip), vehicle: other): 333 % of control

Structure (SMILES): COc1cc(/C=C/C=C/C(=O)N2CCCCC2)ccc1O
- T/C (dose: 100.0 mg/kg/injection, schedule: Q01DX009 (ip), vehicle: saline with Tween-80): 88 % of control
- T/C (dose: 200.0 mg/kg/injection, schedule: Q01DX009 (ip), vehicle: saline with Tween-80): 92 % of control

Structure (SMILES): CC(C)(C)NN
- T/C (dose: 5.0 mg/kg/injection, schedule: Q01DX001 (ip), vehicle: saline): 102 % of control
- T/C (dose: 10.0 mg/kg/injection, schedule: Q01DX001 (ip), vehicle: saline): 104 % of control
- T/C (dose: 20.0 mg/kg/injection, schedule: Q01DX001 (ip), vehicle: saline): 98 % of control
- T/C (dose: 40.0 mg/kg/injection, schedule: Q01DX001 (ip), vehicle: saline): 94 % of control
- T/C (dose: 80.0 mg/kg/injection, schedule: Q01DX001 (ip), vehicle: saline): 96 % of control
- T/C [10]: 101 % of control

Structure (SMILES): O=C(OCC1OC(n2c(=O)[nH]cc(F)c2=O)C(OC(=O)c2ccccc2)C1OC(=O)c1ccccc1)c1ccccc1 (stereo not drawn)
- T/C (dose: 12.5 mg/kg/injection, schedule: Q01DX005 (ip), vehicle: saline): 121 % of control
- T/C (dose: 20.0 mg/kg/injection, schedule: Q01DX005 (ip), vehicle: Klucel (hydroxypropylcellulose) (HPC)): 108 % of control
- T/C (dose: 25.0 mg/kg/injection, schedule: Q01DX005 (ip), vehicle: saline): 152 % of control
- T/C (dose: 50.0 mg/kg/injection, schedule: Q01DX005 (ip), vehicle: saline): 196 % of control and 206 % of control
- T/C (dose: 80.0 mg/kg/injection, schedule: Q01DX005 (ip), vehicle: Klucel (hydroxypropylcellulose) (HPC)): 209 % of control
- T/C (dose: 100.0 mg/kg/injection, schedule: Q01DX005 (ip), vehicle: saline): 94 % of control
- T/C (dose: 200.0 mg/kg/injection, schedule: Q01DX005 (ip), vehicle: saline): 93 % of control and 92 % of control

Structure (SMILES): Cc1nc(N)c2c(n1)C(C)N(C(=O)c1ccccc1)C2 (stereo not drawn)
- T/C [1]: 103 % of control
- T/C [2]: 100 % of control
- T/C [3]: 97 % of control

Structure (SMILES): C1CCC2C(C1)CCC1C3CCCC3OCN21 (stereo not drawn)
- T/C [11]: 96 % of control
- T/C [12]: 96 % of control
- T/C [13]: 93 % of control
